Test results reported in patent US20060069132A1, “Azolecarboxamide herbicides” (priority 2004, published 2006).

Assays:
lambsquarters = assay: Test B pre-/postemergence herbicide test; type: in vivo, Chenopodium album; details: for Plant response rating (0 to 100 scale), Lambsquarters: 0 is no effect, 100 is complete control, preemergence
How it was run: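 Herbicidal effect was judged by eye on a 0–100 scale after plants stood 13 to 15 days in the greenhouse following pre- or postemergence treatment with surfactant-containing formulations.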

morningglory = assay: Test B pre-/postemergence herbicide test; type: in vivo, Ipomoea coccinea; details: for Plant response rating (0 to 100 scale), Morningglory: 0 is no effect, 100 is complete control, preemergence
How it was run: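 Greenhouse pot assay with simultaneous preemergence (treated seed) and postemergence (2–18 cm seedlings) applications of surfactant-containing, non-phytotoxic solvent formulations. Response scored visually 13–15 days later on a 0–100 scale, 100 meaning complete control.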

cocklebur = assay: Test C pre-/postemergence herbicide test; type: in vivo, Xanthium strumarium; details: preemergence; for Plant response rating (0 = no effect, 100 = complete control), Cocklebur: 125 g ai/ha
How it was run: (§1)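 Pre/post spray; non-phytotoxic solvent + surfactant. Post-timing 1–4 leaves, 2–18 cm. Read-out: visual % control vs untreated, day 12–14, greenhouse.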

kochia = assay: Test C pre-/postemergence herbicide test; type: in vivo, Kochia scoparia; details: preemergence; for Plant response rating (0 = no effect, 100 = complete control), Kochia: 125 g ai/ha
How it was run: as §1

eastern black nightshade = assay: Test C pre-/postemergence herbicide test; type: in vivo, Solanum ptycanthum; details: preemergence; for Plant response rating (0 = no effect, 100 = complete control), Nightshade: 125 g ai/ha
How it was run: as §1

yellow nutsedge = assay: Test C pre-/postemergence herbicide test; type: in vivo, Cyperus esculentus; details: preemergence; for Plant response rating (0 = no effect, 100 = complete control), Nutsedge, Yellow: 125 g ai/ha
How it was run: as §1

soybean = assay: Test C pre-/postemergence herbicide test; type: in vivo, Glycine max; details: preemergence; for Plant response rating (0 = no effect, 100 = complete control), Soybean: 125 g ai/ha
How it was run: as §1

[1] = 125 g ai/ha, visual rating, scale 0 (no effect) to 100 (complete control), postemergence
[2] = Postemergence, 500 g ai/ha, scale 0 (no effect) to 100 (complete control)
[3] = 500 g ai/ha, scale 0 to 100 (0 no effect, 100 complete control), visual, 12 to 14 days
[4] = postemergence, 125 g ai/ha, scale 0 to 100

Compound | Plant response rating (0 to 100 scale), Lambsquarters (lambsquarters; 125 g ai/ha) | Lambsquarters plant response rating (lambsquarters; [2]) | Plant response rating (0 to 100 scale), Morningglory (morningglory; 125 g ai/ha) | Morningglory plant response rating (morningglory; [2]) | Plant response rating, Cocklebur (cocklebur; 62 g ai/ha, scale 0 to 100) | Plant response rating (0 = no effect, 100 = complete control), Cocklebur (cocklebur) | Plant response rating, Cocklebur (cocklebur; 250 g ai/ha, scale 0-100) | Plant response rating, Cocklebur (cocklebur; [3]) | Plant response rating (0 = no effect, 100 = complete control), Kochia (kochia) | Plant response rating, Kochia (kochia; 250 g ai/ha, scale 0-100) | Plant response rating, Kochia (kochia; [3]) | Plant response rating, Nightshade (eastern black nightshade; 62 g ai/ha, scale 0 to 100) | Plant response rating (0 = no effect, 100 = complete control), Nightshade (eastern black nightshade) | Plant response rating, Nightshade (eastern black nightshade; [3]) | Plant response rating, Nutsedge, Yellow (yellow nutsedge; 62 g ai/ha, scale 0 to 100) | Plant response rating (0 = no effect, 100 = complete control), Nutsedge, Yellow (yellow nutsedge) | Plant response rating, Nutsedge, Yellow (yellow nutsedge; [3]) | Plant response rating, Soybean (soybean; 62 g ai/ha, scale 0 to 100) | Plant response rating (0 = no effect, 100 = complete control), Soybean (soybean) | Plant response rating, Soybean (soybean; [3]) | also measured
CCc1nn(C(C)(C)CC)nc1C(=O)Nc1cccc(C(=O)N(C)C)c1 [Compound 372] | 100 | 90 | 10 | 60 | 0 | 10 | 60 | 90 | 100 | 100 | 100 | 85 | 95 | 100 | 5 | 30 | 85 | 0 | 5 | 90 | Lambsquarters plant response rating (lambsquarters; [1]): 40; Morningglory plant response rating (morningglory; [1]): 20; Plant response rating, Kochia (kochia; 62 g ai/ha, scale 0 to 100): 100; Plant response rating, Nightshade (eastern black nightshade; 250 g ai/ha, scale 0-100): 100; Plant response rating, Nutsedge, Yellow (yellow nutsedge; 250 g ai/ha, scale 0-100): 40; Plant response rating, Soybean (soybean; 250 g ai/ha, scale 0-100): 20
CCNC(=O)c1cccc(NC(=O)c2nn(C(C)(C)CC)nc2CC)c1 [Compound 376] | 100 | 90 | 10 | 60 | 0 | 0 | 0 | 5 | 100 | 100 | 100 | 95 | 100 | 100 | 5 | 30 | 60 | 0 | 10 | 10 | Lambsquarters plant response rating (lambsquarters; [1]): 70; Morningglory plant response rating (morningglory; [1]): 30; Plant response rating, Kochia (kochia; 62 g ai/ha, scale 0 to 100): 95; Plant response rating, Nightshade (eastern black nightshade; 250 g ai/ha, scale 0-100): 100; Plant response rating, Nutsedge, Yellow (yellow nutsedge; 250 g ai/ha, scale 0-100): 40; Plant response rating, Soybean (soybean; 250 g ai/ha, scale 0-100): 10
Cc1nn(C(C)(C)C)nc1C(=O)Nc1cccc(C(=O)N(C)C)c1 [Compound 391] | 100 | 90 | 90 | 70 | 20 | 45 | 80 | 80 | 100 | 100 | 100 | 90 | 95 | 95 | 5 | 70 | 90 | 95 | 95 | 100 | Lambsquarters plant response rating (lambsquarters; [1]): 70; Morningglory plant response rating (morningglory; [1]): 30; Plant response rating, Kochia (kochia; 62 g ai/ha, scale 0 to 100): 100; Plant response rating, Nightshade (eastern black nightshade; 250 g ai/ha, scale 0-100): 95; Plant response rating, Nutsedge, Yellow (yellow nutsedge; 250 g ai/ha, scale 0-100): 90; Plant response rating, Soybean (soybean; 250 g ai/ha, scale 0-100): 100
CCNC(=O)c1ccc(F)c(N(C(C)=O)C(=O)c2cc(C(C)(C)C)nn2CC)c1 [Compound 399] | 100 | 100 | 10 | 40 | 15 | 65 | 70 | 80 | 80 | 100 | 100 | 95 | 100 | 100 | 45 | 75 | 95 | 75 | 85 | 100 | Lambsquarters plant response rating (lambsquarters; [1]): 80; Morningglory plant response rating (morningglory; [1]): 20
CCN(CC)C(=O)c1cccc(NC(=O)c2nn(C(C)(C)C)nc2C)c1 [Compound 418] | 100 | 90 | 40 | 80 | 0 | 0 | 30 | 35 | 80 | 85 | 95 | 95 | 95 | 100 | 0 | 0 | 0 | 0 | 20 | 90 | Lambsquarters plant response rating (lambsquarters; [4]): 60; Morningglory plant response rating (morningglory; [4]): 80; Plant response rating, Kochia (kochia; 62 g ai/ha, scale 0 to 100): 65
